{"source": "patent US3965109A", "about": "“Certain aryl amino pyridines” (priority 1971, dated 1976)", "key": {"[1]": {"system": "Venturia inaequalis (apple)", "experiment": "Fungicidal test against foliar disease G (foliage spray plus soil drench)", "assay_type": "in vivo", "conditions": "100 ppm spray and drench; 21 days", "procedure": "This Example illustrates the fungicidal properties of compounds used as active ingredients in the compositions of the invention. The compounds were tested against a wide variety of foliar fungal diseases of plants. In the test, a composition comprising an aqueous solution or suspension of the test compound was sprayed on to the foliage or uninfected plants; the soil in which the plants were growing was also drenched with the composition. The compositions used for spraying and drencing contained 100 parts per million (ppm.) of the test compound except where otherwise stated in the table of results below. After spraying and drenching, the plants were then exposed to infection with the diseases it was desired to control, along with control plants not treated with the compound. After a period of days, depending upon the particular disease, the extent of the disease was visually assessed, as a percentage of the disease established upon the control plants which had not been treated with the compound under test, according to the grading scheme below\nIn Table 2 below the names of the disease is given in the first column, and in the second column is given the time which elapsed between exposing the plants to infection and assessing the amount of disease."}, "Aphis fabae": {"system": "Aphis fabae", "experiment": "Pest toxicity test", "assay_type": "in vivo", "conditions": "0.1% by weight; broad bean; 2 days"}, "[2]": {"system": "larvae of the blowfly (Lucilia serrata)", "experiment": "Insecticidal test on blowfly larvae on treated filter paper", "assay_type": "in vivo", "parameters": "key: 5 represents inseccticidal activity equal to that of the known insecticide; 6 represents activity 10 times that of the standard", "conditions": "scale of 1 to 6; filter paper with horse serum"}, "Megoura viceae": {"system": "Megoura viceae", "experiment": "Pest toxicity test", "assay_type": "in vivo", "conditions": "0.1% by weight; broad bean; 2 days"}, "Pea": {"system": "Pea", "experiment": "Further herbicidal test, various rates", "assay_type": "in vivo", "conditions": "5 lb/acre; scale 0 to 5 (complete kill)"}, "Sugar beet": {"system": "Sugar beet", "experiment": "Further herbicidal test, various rates", "assay_type": "in vivo", "conditions": "5 lb/acre; scale 0 to 5 (complete kill)"}, "Kale": {"system": "Kale", "experiment": "Further herbicidal test, various rates", "assay_type": "in vivo", "conditions": "5 lb/acre; scale 0 to 5 (complete kill)"}, "Onion": {"system": "Onion", "experiment": "Further herbicidal test, various rates", "assay_type": "in vivo", "conditions": "5 lb/acre; scale 0 to 5 (complete kill)"}, "Wheat": {"system": "Wheat", "experiment": "Herbicidal test, pre- and post-emergence", "assay_type": "in vivo", "conditions": "10 lb/acre (11.2 kg/ha); scale 0 (no effect) to 3 (complete kill)"}, "Xanthomonas oryzae": {"system": "Xanthomonas oryzae", "assay_type": "cell-based", "conditions": "50 ppm; 5 days"}, "Tomato": {"system": "Tomato", "experiment": "Herbicidal test, pre- and post-emergence", "assay_type": "in vivo", "conditions": "10 lb/acre (11.2 kg/ha); scale 0 (no effect) to 3 (complete kill)"}, "Xanthomonas malvacearum": {"system": "Xanthomonas malvacearum", "experiment": "Antibacterial agar test (B3)", "assay_type": "cell-based", "conditions": "50 ppm; 5 days", "in_short": "(§1)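 Compound was dissolved or suspended in acetone and mixed into nutrient agar to 50 ppm final, then dried overnight in Petri dishes. Plates were inoculated with the bacteria via multipoint inoculator and antibacterial activity was graded after 5 days.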"}, "[3]": {"system": "Musca domestica (houseflies)", "experiment": "Pest toxicity test, contact test", "assay_type": "in vivo", "conditions": "0.1% by weight; milk/sugar; 2 days; flies sprayed directly"}, "[4]": {"system": "Corynebacterium michiganense", "experiment": "Antibacterial agar test (B2)", "assay_type": "cell-based", "conditions": "50 ppm; 5 days", "in_short": "as §1"}, "Maize": {"system": "Maize", "experiment": "Herbicidal test, pre- and post-emergence", "assay_type": "in vivo", "conditions": "10 lb/acre (11.2 kg/ha); scale 0 (no effect) to 3 (complete kill)"}, "[5]": {"system": "Phaedon cochleariae (mustard beetles)", "experiment": "Pest toxicity test", "assay_type": "in vivo", "conditions": "in vivo"}, "Pseudomonas syringae": {"system": "Pseudomonas syringae", "experiment": "Antibacterial agar test (B6)", "assay_type": "cell-based", "conditions": "50 ppm; 5 days"}, "[6]": {"system": "Tetranychus telarius (red spider mites, adults)", "experiment": "Pest toxicity test", "assay_type": "in vivo", "conditions": "0.1% by weight; French bean; 3 days"}, "Erwinia carotovora": {"system": "Erwinia carotovora", "experiment": "Antibacterial agar test (B4)", "assay_type": "cell-based", "conditions": "50 ppm; 5 days"}, "Streptomyces scabies": {"system": "Streptomyces scabies", "experiment": "Antibacterial agar test (B7)", "assay_type": "cell-based", "conditions": "50 ppm; 5 days"}, "[7]": {"system": "Plutella maculipennis (diamond back moth larvae)", "experiment": "Pest toxicity test", "assay_type": "in vivo", "conditions": "in vivo"}, "Barley": {"system": "Barley", "experiment": "Further herbicidal test, various rates", "assay_type": "in vivo", "conditions": "5 lb/acre; scale 0 to 5 (complete kill)"}, "[8]": {"system": "Aedes aegypti (mosquito larvae)", "experiment": "Pest toxicity test", "assay_type": "in vivo", "conditions": "0.01% by weight; water; 1 day"}, "Oat": {"system": "Oat", "experiment": "Further herbicidal test, various rates", "assay_type": "in vivo", "conditions": "5 lb/acre; scale 0 to 5 (complete kill)"}, "[9]": {"system": "Agrobacterium tumifaciens", "experiment": "Antibacterial agar test (B1)", "assay_type": "cell-based", "conditions": "50 ppm; 5 days"}, "[10]": {"system": "Tetranychus telarius (red spider mites, eggs)", "experiment": "Pest toxicity test", "assay_type": "in vivo", "conditions": "0.1% by weight; French bean; 3 days"}, "[11]": {"system": "Pieris brassicae (cabbage white caterpillars)", "experiment": "Pest toxicity test", "assay_type": "in vivo", "conditions": "0.1% by weight, 2 days"}, "Carrot": {"system": "Carrot", "experiment": "Further herbicidal test, various rates", "assay_type": "in vivo", "conditions": "5 lb/acre; scale 0 to 5 (complete kill)"}, "Lettuce": {"system": "Lettuce", "experiment": "Herbicidal test, pre- and post-emergence", "assay_type": "in vivo", "conditions": "10 lb/acre (11.2 kg/ha); scale 0 (no effect) to 3 (complete kill)"}, "Rice": {"system": "Rice", "experiment": "Further herbicidal test, various rates", "assay_type": "in vivo", "conditions": "5 lb/acre; scale 0 to 5 (complete kill)"}, "[12]": {"system": "Aedes aegypti (mosquito adults)", "experiment": "Pest toxicity test", "assay_type": "in vivo", "conditions": "0.01% by weight; plywood; 1 day"}}}
{"smiles": "N#Cc1c(F)c(F)c(Nc2c(Cl)c(F)nc(F)c2Cl)c(F)c1F", "note": "[Compound 19, 4(4-Cyano-2,3,5,6-tetrafluoroanilino)-3,5-dichloro-2,6-difluoropyridine]", "values": [{"measurement": "Amount of disease grading, disease G", "setting": "[1]", "value": "3 (0 to 5)"}, {"measurement": "Mortality grading (kill)", "setting": "Aphis fabae", "value": "3 (3 represents over 90% kill)"}, {"measurement": "Activity relative to lindane", "setting": "[2]", "value": 5}, {"measurement": "Mortality grading (kill)", "setting": "Megoura viceae", "value": "3 (3 represents over 90% kill)"}, {"measurement": "Damage to plants, post-emergence", "setting": "Pea", "value": 0}, {"measurement": "Damage to plants, post-emergence", "setting": "Sugar beet", "value": 2}, {"measurement": "Damage to plants, post-emergence", "setting": "Kale", "value": 3}, {"measurement": "Damage to plants, post-emergence", "setting": "Onion", "value": 1}, {"measurement": "Damage to plants, post-emergence", "setting": "Wheat", "value": 2}, {"measurement": "Damage to plants, pre-emergence", "setting": "Wheat", "value": 3}, {"measurement": "Antibacterial activity grading B5", "setting": "Xanthomonas oryzae", "value": "3 (0 to 5)"}, {"measurement": "Damage to plants, post-emergence", "setting": "Tomato", "value": 3}, {"measurement": "Damage to plants, pre-emergence", "setting": "Tomato", "value": 3}, {"measurement": "Antibacterial activity grading B3", "setting": "Xanthomonas malvacearum", "value": "3 (0 to 5)"}, {"measurement": "Mortality grading (kill), contact test", "setting": "[3]", "value": "3 (3 represents over 90% kill)"}, {"measurement": "Antibacterial activity grading B2", "setting": "[4]", "value": "3 (0 to 5)"}, {"measurement": "Damage to plants, post-emergence", "setting": "Maize", "value": 1}, {"measurement": "Damage to plants, pre-emergence", "setting": "Maize", "value": 3}, {"measurement": "Mortality grading (kill)", "setting": "[5]", "value": "0 (key: O represents less than 30% kill; 1 represents 30 - 49% kill; 2 represents 60 - 90% kill; 3 represents over 90% kill; C indicates a chemosterilant effect.; A indicates an antifeeding effect.)"}, {"measurement": "Antibacterial activity grading B6", "setting": "Pseudomonas syringae", "value": "3 (0 to 5)"}, {"measurement": "Mortality grading (kill)", "setting": "[6]", "value": "3 (3 represents over 90% kill)"}, {"measurement": "Antibacterial activity grading B4", "setting": "Erwinia carotovora", "value": "3 (0 to 5)"}, {"measurement": "Antibacterial activity grading B7", "setting": "Streptomyces scabies", "value": "3 (0 to 5)"}, {"measurement": "Mortality grading (kill)", "setting": "[7]", "value": "0 (key: O represents less than 30% kill; 1 represents 30 - 49% kill; 2 represents 60 - 90% kill; 3 represents over 90% kill; C indicates a chemosterilant effect.; A indicates an antifeeding effect.)"}, {"measurement": "Damage to plants, post-emergence", "setting": "Barley", "value": 2}, {"measurement": "Mortality grading (kill)", "setting": "[8]", "value": "3 (3 represents over 90% kill)"}, {"measurement": "Damage to plants, post-emergence", "setting": "Oat", "value": 0}, {"measurement": "Antibacterial activity grading B1", "setting": "[9]", "value": "3 (0 to 5)"}, {"measurement": "Mortality grading (kill)", "setting": "[10]", "value": "3 (3 represents over 90% kill)"}, {"measurement": "Mortality grading (kill)", "setting": "[11]", "value": "2 (2 represents 60 - 90% kill)"}, {"measurement": "Damage to plants, post-emergence", "setting": "Carrot", "value": 0}, {"measurement": "Damage to plants, post-emergence", "setting": "Lettuce", "value": 3}, {"measurement": "Damage to plants, pre-emergence", "setting": "Lettuce", "value": 3}, {"measurement": "Damage to plants, post-emergence", "setting": "Rice", "value": 2}, {"measurement": "Mortality grading (kill)", "setting": "[12]", "value": "3 (3 represents over 90% kill)"}]}
